Active and inactive are the calls of the source.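 The calls were made as follows: active = inhibition at or above 50% when tested at 10 µM; inactive = inhibition below 50% at 10 µM.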
Molecular target: Methionine--tRNA ligase, mitochondrial (Homo sapiens) (UniProt Q96GW9)
Assay: inhibitors of human mitochondrial methionyl-tRNA synthetase – biochemical, radioactivity, round 2, selectivity assay for T. brucei MetRS inhibitor project, late-stage follow-up (AID 1053200)
Conditions: recombinant human mitochondrial MetRS, [3H]Met aminoacylation, stronger effect = higher value

Sequence of Methionine--tRNA ligase, mitochondrial (Homo sapiens) (Q96GW9 whole entry, looked up): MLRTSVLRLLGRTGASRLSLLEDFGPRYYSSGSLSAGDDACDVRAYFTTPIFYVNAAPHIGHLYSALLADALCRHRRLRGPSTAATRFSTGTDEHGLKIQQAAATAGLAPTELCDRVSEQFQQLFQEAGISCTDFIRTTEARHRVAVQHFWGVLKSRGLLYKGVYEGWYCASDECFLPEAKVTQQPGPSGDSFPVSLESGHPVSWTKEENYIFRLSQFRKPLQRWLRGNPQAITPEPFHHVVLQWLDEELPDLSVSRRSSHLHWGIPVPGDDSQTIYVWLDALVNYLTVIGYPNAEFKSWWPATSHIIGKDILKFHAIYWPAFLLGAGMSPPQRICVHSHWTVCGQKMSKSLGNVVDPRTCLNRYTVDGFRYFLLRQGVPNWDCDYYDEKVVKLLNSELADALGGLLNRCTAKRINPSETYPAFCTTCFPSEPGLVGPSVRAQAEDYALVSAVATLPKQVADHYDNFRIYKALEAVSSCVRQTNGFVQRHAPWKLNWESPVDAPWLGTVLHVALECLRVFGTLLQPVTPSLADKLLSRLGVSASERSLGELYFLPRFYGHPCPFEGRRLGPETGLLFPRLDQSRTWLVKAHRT

Row | inhibition (at 10 µM) | inhibition (inhibition, at 1 µM) | Structure (SMILES)
1 | 21.1% (inactive) | -2.76% | CCN(CC)C(=O)C(=O)c1cn(CC(=O)Nc2cc(Oc3ccccc3)cc(C(F)(F)F)c2)c2ccccc12
2 | 9.77% (inactive) | -3.97% | CCN(CC)C(=O)C(=O)c1cn(CC(=O)Nc2cc(C(F)(F)F)cc(C(F)(F)F)c2)c2ccccc12
3 | -1.37% (inactive) | -8.82% | CCN(CC)C(=O)C(=O)c1cn(CC(=O)Nc2cccc(C(F)(F)F)c2)c2cc(OC)ccc12

More lines, now with the values behind:

Row | Structure (SMILES) | inhibition (at 10 µM) | inhibition (inhibition, at 1 µM)
4 | CCN(CC)C(=O)C(=O)c1cn(CC(=O)Nc2cc(Cl)cc(C(F)(F)F)c2)c2ccccc12 | 17.4% (inactive) | -6.78%
5 | CCN(CC)C(=O)C(=O)c1cn(CC(=O)Nc2cc(C)cc(C(F)(F)F)c2)c2ccccc12 | 20.9% (inactive) | -1.02%
6 | CCN(CC)C(=O)C(=O)c1cn(CC(=O)Nc2cc(Br)cc(C(F)(F)F)c2)c2ccccc12 | 12.8% (inactive) | -17.3%

Source: PubChem BioAssay AID1053200 (The Scripps Research Institute Molecular Screening Center, 2014)
